Measured values from ChEMBL document CHEMBL1126503, “Syntheis of TRP-VAL non-cleavable dipeptide transition state isosteres” (Bioorg Med Chem Lett, 1993).
Activity calls are given as the source filed them. The calls are words filed in the database; no cut-off is given here.

Tested on: Endothelial cell
Test: Tested for inhibition of Endothelin-converting enzyme derived from bovine endothelial cell; NA means inactive uM
Format: cell-based

Row | Compound | inhibition
1 | CC(C)/C(=C/C(=O)[C@H](Cc1c[nH]c2ccccc12)NC(=O)OC(C)(C)C)C(=O)O | inactive
2 | COC(=O)[C@@H](NC(=O)[C@H](CC(N)=O)NC(=O)/C(=C\C(=O)[C@H](Cc1c[nH]c2ccccc12)NC(=O)OC(C)(C)C)C(C)C)C(C)C(=O)C(C)(C)C (stereo partly drawn) | inactive
3 | CCOC(=O)/C(=C/C(=O)[C@H](Cc1c[nH]c2ccccc12)NC(=O)OC(C)(C)C)C(C)C | inactive
